# Tests used:
# [1] = test system: mice injected with ellagic acid via the tail vein; test: Effect on in vivo clotting time in mice (ellagic acid tail vein injection); conditions: Mus musculus, iv, 100 mg/kg i.g. for 4 days, ellagic acid i.v. 1 h after last dose, vs model group, read-out: Clotting time prolongation (%)
# Experimental: The control and model groups were gavaged with distilled water, and the positive clopidogrel group, and the test substance group were gavaged orally (i.g.) with drug solution in a volume of 0.1 mL/10 g for 4 consecutive days. 1 h after the last administration, all groups were injected with 0.15 mL/10 g of 0.3% ellagic acid solution via tail vein injection except for the blank group which was injected with physiological saline: 0.1 ml/10 g. After 5 min, glass capillaries were used for blood collection through the retro-orbital venous plexus, and the appearance time of coagulation filaments was recorded by glass capillaries at 10-second intervals.
# Calculation equation for prolongation of clotting time:
# Prolongation of clotting time (%)=[(mean value of clotting time in blank or administered group/mean value of clotting time in model group)−1]×100%
# ICR mice = test: Effect on in vivo bleeding time in mice (tail cut); conditions: 15 mg/kg i.g. once daily for 4 days
# Experimental: A normal control group (blank), positive control group (clopidogrel) and experimental groups were set up with 10 ICR mice (male, weighed about 25 g) in each group. Animals in each group were administered the corresponding drug solution by oral gavage (i.g.) at 0.1 ml/10 g body weight, and the blank control group was given distilled water, once daily for 4 days. On the 4th day, 1 h after the administration of the drug, the animals were anesthetized by intraperitoneal injection of sodium barbiturate at a dose of about 50 mg/kg, and 20 min later, the tails of the mice were cut at a distance of 3 mm from the tip of the tail, and at regular intervals, absorbent paper was used to dip the blood at the severed tails until no blood exuded, which was recorded as the bleeding time, and the results of the experiment were shown in Table 2.
# Calculation equation for prolongation of bleeding time: […]
# [2] = test system: rats with myocardial ischemia-reperfusion injury; test: Myocardial ischemia-reperfusion injury caused by coronary artery ligation in rats; format: in vivo; conditions: x ± s, n = 8
# Experimental: Experimental Methods: A model of myocardial ischemia/reperfusion (MI/R) injury caused by coronary artery ligation was established in rats, and animals were grouped into high-dose (20 mg/kg), medium-dose (10 mg/kg), low-dose (5 mg/kg) of the test drug, clopidogrel (7.5 mg/kg), sham, and model groups. Equal volume of 0.5% CMC-Na was administered at 0.5 ml/100 g body weight in both sham and model groups. The drug was administered by gavage (i.g.) once a day for 5 consecutive days. Modeling was performed 30 min after the last administration, and after modeling, 8 successfully modeled rats were selected from each group for subsequent experiments. The sham group was placed a wire under the left anterior descending branch of the coronary artery according to the model preparation method without ligation, and the other groups were modeled according to the model preparation method. The effects of the test drugs on the cardiac infarction rate and the biochemical indexes of creatine kinase (CK), lactate dehydrogenase (LDH), malondialdehyde (MDA), and superoxide dismutase (SOD) in plasma were detected, and TTC staining of the heart was performed to detect the effects of the test drugs on the area of myocardial infarction in MI/R rats.
# [3] = test system: rats with focal cerebral ischemia (MCAO)/reperfusion; test: Prophylactic administration, cerebral ischemia-reperfusion injury (MCAO/R) in rats; format: in vivo; conditions: 6 mg/kg tail vein, Mean ± SD, n = 8
# Experimental: Experimental methods: SD rats were randomly divided into 6 groups, set as sham group, model control group, positive control drug ozagrel (6 mg/kg) group, and test drug compound 1-1 high (9 mg/kg), medium (3 mg/kg), and low (1 mg/kg) dose group. The administered groups were preadministered by tail vein injection, and the sham and model control groups were given an equal volume of saline, once a day for 3 consecutive days. Ten minutes after the last administration, the rat MCAO/R model was established, and reperfusion was performed 2 h after ischemia. 24 h after MCAO reperfusion, neurobehavioral scores were performed to determine the neurological function of rats; 2,3,5-triphenyltetrazolium chloride (TTC) staining method was used to determine the rate of cerebral infarction and cerebral water content in rats.
# [4] = test system: rats with autologous thrombus and thrombin-induced cerebral ischemic injury; test: Ischemic brain injury induced by autologous thrombus and thrombin in rats (i.v., alone or with urokinase); format: in vivo, SD rats; conditions: n = 10
# Experimental: Experimental Methods: A model of cerebral ischemic injury in SD rats was prepared by embolizing the middle cerebral artery of rats with autologous thrombus and thrombin via the external carotid artery to the internal carotid artery and the rats were randomly divided into 5 groups according to behavioral scores, a sham group (only the external carotid artery was isolated); a model-control group (saline was given to both groups in equal volume); urokinase (5000 U/kg) group; compound 1-1 ([…]) group; with 20 animals in each group (10 for detecting the rate of cerebral infarction, and the other 10 for pathological testing). Each group was administered slowly in the tail vein (1 ml per minute) 2 h after modeling, and the decrease in blood flow was monitored after thrombin injection and 120 min after administration. Neurobehavioral scoring was performed on the rats after 24 h to determine the neurological function of the rats; 2,3,5-triphenyltetrazolium chloride (TTC) staining was used to determine the rate of cerebral infarction and cerebral water content, and hematoxylin-eosin (HE) staining was used to observe the pathological damage of the brain in rats administered with the drug 2 h after cerebral ischemia.
molecule,measurement,setting,value
"COC(=O)[C@H](c1ccccc1Cl)N1CCc2sccc2C1 [Clopidogrel, clopidogrel, reference compound]",change in vivo at 100 mg/kg,[1],36.8%
same,Bleeding time prolongation (%),ICR mice,>579.89%
same,Cardiac infarction rate (%),[2]; 7.5 mg/kg i.g. once a day for 5 days,14.29 ± 6.82 %
same,Pathological Score,"[2]; myocardium, 7.5 mg/kg i.g.",1.88 ± 0.64
same,CK (U/mL),"[2]; plasma, 7.5 mg/kg i.g.",0.32 ± 0.20 U/mL
same,LDH (U/L),"[2]; plasma, 7.5 mg/kg i.g.",8522.72 ± 626.17 U/L
same,MDA,"[2]; plasma, 7.5 mg/kg i.g.",15.90 ± 1.37 nmol/mL
same,SOD (U/mL),"[2]; plasma, 7.5 mg/kg i.g.",40.92 ± 1.67 U/mL
"O=C(O)/C=C/c1ccc(Cn2ccnc2)cc1 [Ozagrel, ozagrel, reference compound]",Cerebral infarction rate (%),"[3]; 3 days before MCAO/R, 24 h after reperfusion",17.07 ± 10.69 %
same,behavioral score,[3]; MCAO/R,1.50 ± 0.76
same,cerebral water content (%),[3]; MCAO/R,81.00 ± 0.98 %
Urokinase,Cerebral infarction rate,"[4]; 5000 U/kg i.v., TTC staining, mean ± S.D.",9.72 ± 9.89
same,behavioral score,"[4]; 5000 U/kg i.v., after 24 h, Mean ± SD",1.60 ± 0.70
same,cerebral water content (%),"[4]; 5000 U/kg i.v., mean ± S.D.",79.78 ± 0.72 %
same,Percentage decrease two hours after administration (%),"[4]; cerebral blood flow, 5000 U/kg i.v. 2 h after modeling, Mean ± SD",37.12 ± 4.49 %
same,Percentage decrease after thrombin injection (%),"[4]; cerebral blood flow, before administration, 5000 U/kg group, Mean ± SD",50.10 ± 7.94%
same,Pathology Score,"[4]; cerebral ischemic areas, 5000 U/kg i.v., mean ± SD",1.75 ± 0.86

# — patent US20250066310A1, “MULTI-SUBSTITUTED URACIL DERIVATIVE AND PREPARATION METHOD THEREFOR AND APPLICATION THEREOF” (HANGZHOU ADAMERCK PHARMLABS INC., priority 2021, published 2025)
